Tests used:
[1] = system: normal human epidermal keratinocytes (NHEKs); assay: Fluorescent bead (pseudo-melanosome) phagocytosis enhanced by UVB irradiation; format: cell-based
Experimental: Test Example 1: Enhancement of Fluorescent Bead Phagocytosis by UVB Irradiation and Enhanced Phagocytosis-Inhibiting Effect by VB6 A culture medium (HuMedia-KG2: manufactured by Kurabo Industries Ltd.) was added to a 96-well plate at 0.1 mL/well, and normal human epidermal keratinocytes (NHEKs) were seeded at a density of 2.5×10^4 cells/well, followed by incubation for 24 hours. These cells were divided into first to fourth groups. In the first group (vitamin B6+UVB group), the medium was replaced by a pyridoxine-containing culture medium (pyridoxine: 1 mM), followed by culturing for 24 hours, and irradiation with 20 mJ/cm^2 of UVB using a UVB broadband lamp manufactured by Koninklijke Philips N.V. was performed, followed by culturing for 24 hours. In the second group (vitamin B6 group), the medium was replaced by a pyridoxine-containing culture medium (pyridoxine: 1 mM), followed by culturing for 24 hours. […] Subsequently, the NHEKs of each group were allowed to incorporate fluorescent beads (manufactured by Thermo Fisher Scientific Inc.) as pseudo-melanosomes for 4 hours, and the uptake amount of the fluorescent beads per unit protein was then measured with a microplate reader (manufactured by Tecan Group Ltd.).

[2] = system: normal human epidermal keratinocytes (NHEKs); assay: Fluorescent bead phagocytosis enhanced by BSO treatment; format: cell-based; conditions: 50 μM BSO, pyridoxine 0.25 mM, 0.5 mM, or 1 mM, FIG. 2
Experimental: Test Example 2: Enhancement of Fluorescent Bead Phagocytosis by BSO Treatment and Enhanced Phagocytosis-Inhibiting Effect by VB6 A culture medium (HuMedia-KG2) was added to a 96-well plate at 0.1 mL/well, and normal human epidermal keratinocytes (NHEKs) were seeded at a density of 2.5×10^4 cells/well, followed by incubation for 24 hours. These cells were divided into first to fourth groups. In the first group (vitamin B6+BSO group), treatment with 50 μM of buthionine sulfoximine (BSO: manufactured by Sigma-Aldrich Co. LLC) was performed for 24 hours, and the medium was then replaced by a pyridoxine-containing culture medium (pyridoxine: 0.25 mM, 0.5 mM, or 1 mM), followed by culturing for 24 hours. In the second group (vitamin B6 group), the medium was replaced by a pyridoxine-containing culture medium (pyridoxine: 0.25 mM, 0.5 mM, or 1 mM), followed by culturing for 24 hours. In the third group (BSO group), treatment with 50 μM of buthionine sulfoximine (BSO) was performed for 24 hours, followed by culturing in a KG2 culture medium for 24 hours. […] Subsequently, the NHEKs of each group were allowed to incorporate fluorescent beads (manufactured by Thermo Fisher Scientific Inc.) for 4 hours, and the uptake amount of the fluorescent beads per unit protein was then measured with a microplate reader (manufactured by Tecan Group Ltd.).

[3] = system: gene expression levels of keratin-10, involucrin, and loricrin; assay: Degradation of epidermal differentiation potency by fluorescent bead phagocytosis, real-time PCR; format: cell-based, human
Experimental: Test Example 3: Effect of Improving Degradation of Epidermal Differentiation Potency by Fluorescent Bead Phagocytosis A culture medium (HuMedia-KG2) was added to a 96-well plate at 0.1 mL/well, and normal human epidermal keratinocytes (NHEKs) were seeded at a density of 2.5×10^4 cells/well, followed by incubation for 24 hours. These cells were divided into first to third groups. In the first group (vitamin B6+bead group), the medium was replaced by a pyridoxine-containing culture medium (pyridoxine: 1 mM), followed by culturing for 24 hours. The NHEKs were allowed to incorporate fluorescent beads (manufactured by Thermo Fisher Scientific Inc.) as pseudo-melanosomes for 4 hours, followed by further culturing in a fresh culture medium (HuMedia-KG2) for 20 hours. In the second group (bead group), after culturing for 24 hours, the NHEKs were allowed to incorporate fluorescent beads (manufactured by Thermo Fisher Scientific Inc.) as pseudo-melanosomes for 4 hours, followed by further culturing in a fresh culture medium (HuMedia-KG2) for 20 hours. In the third group (control group), the NHEKs were directly cultured for 48 hours. Subsequently, total RNA was extracted from the NHEKs of each group, and cDNA was produced by reverse transcription. Real-time PCR was performed using this cDNA as a template to detect gene expression levels of keratin-10, involucrin, and loricrin.

Compound | effect on increase in melanosome phagocytosis (uptake amount of fluorescent beads per unit protein) ([1]; NHEKs, pyridoxine 1 mM, 20 mJ/cm^2 UVB, FIG. 1) | effect on increase in melanosome phagocytosis (uptake amount of fluorescent beads per unit protein) [2] | effect on epidermal differentiation potency (gene expression of keratin-10, involucrin, loricrin) ([3]; NHEKs, pyridoxine 1 mM, fluorescent beads 4 hours, FIG. 3) | effect on increase in melanosome phagocytosis, summary statement on the Examples ([1]; general statement covering Test Examples 1 and 2) | effect on epidermal differentiation potency, summary statement on the Examples ([3]; general statement covering Test Example 3)
Cc1ncc(CO)c(CO)c1O [pyridoxine] | inhibiting an increase in melanosome phagocytosis | inhibiting an increase in melanosome phagocytosis | improving epidermal differentiation potency |  | 
vitamin B6 |  |  |  | excellent effects of inhibiting an increase in melanosome phagocytosis | improving epidermal differentiation potency

From patent publication US20230111066A1, “PIGMENTED SPOT FORMATION INHIBITOR, INCREASED MELANOSOME PHAGOCYTOSIS INHIBITOR, AND EPIDERMAL DIFFERENTIATION POTENCY IMPROVER” (SSP CO., LTD., priority 2021, published 2023)
